Experimental data from patent publication US20260232767A1, “INTERLEUKIN-23 RECEPTOR ANTAGONIST PEPTIDES FOR USE IN THE TREATMENT OF PSORIASIS” (Janssen Pharmaceutica NV, priority 2023, published 2026).

Test system: subjects with moderate-to-severe plaque psoriasis
Assay: PASI response, Example 2 long-term extension to Week 52
Format: in vivo, human
Details: for Change from Baseline in PASI Total Score, LSMean: MMRM model
Source text: Described below is a multicenter, long-term extension (LTE), double-blind, dose-ranging, parallel group interventional study in participants from Example 1 to evaluate the long-term efficacy and safety of the hydrochloride salt of the compound of Formula (I) for the treatment of moderate-to-severe plaque psoriasis. Patients from Example 1 continued to receive the same dose of the compound of Formula (I) for an additional 36-week treatment period with a 4-week safety follow up period after the last administration of the compound of Formula (I). Patients randomized to placebo in Example 1 received the compound of Formula (I) at a dose of 100 mg QD starting at Week 16 of Example 1 (FIG. 21).
The primary efficacy endpoint is the proportion of participants achieving a PASI 75 response at Week 52, defined as at least a […] reduction from baseline PASI of Example 1. For primary analysis, composite strategy (non-responder imputation) was applied to address intercurrent event #1 (Discontinuation of study intervention due to lack of efficacy or due to an AE of worsening of psoriasis) and […] (initiation of a protocol-prohibited medication or therapy that could improve psoriasis); treatment policy strategy (observed data) was applied to intercurrent event #3 (Discontinuation of study intervention due to other reasons). Participants with missing data after application of ICEs are considered as non-responders.
Since there was no control arm (after week 16), in this primary analysis, only the proportion of participants who achieved a PASI75 response and its […] confidence interval at Week 52 were summarized for each intervention group.

[1] = Placebo → 100 mg QD, crossed over at or after Week 16, Week 20
[2] = Placebo → 100 mg QD, crossed over at or after Week 16, Week 24
[3] = Placebo → 100 mg QD, crossed over at or after Week 16, Week 28
[4] = Placebo → 100 mg QD, crossed over at or after Week 16, Week 32
[5] = Placebo → 100 mg QD, crossed over at or after Week 16, Week 40
[6] = Placebo → 100 mg QD, crossed over at or after Week 16, Week 52
[7] = Placebo → 100 mg QD, crossed over at or after Week 16, Week 52, non-responder imputation

CC(=O)NCCCC[C@@H]1NC(=O)[C@H](Cc2c[nH]c3c(C)cccc23)NC(=O)[C@H]([C@@H](C)O)NC(=O)[C@H](CC(N)=O)NC(=O)[C@@H](NC(C)=O)C(C)(C)SSC(C)(C)[C@@H](C(=O)N[C@@H](Cc2ccc(OCCN)cc2)C(=O)N[C@@H](Cc2ccc3ccccc3c2)C(=O)NC2(C(=O)N[C@@H](CCC(=O)O)C(=O)N[C@@H](CC(N)=O)C(=O)N[C@@H](Cc3cccnc3)C(=O)N(C)CC(N)=O)CCOCC2)NC1=O [IL-23 receptor antagonist peptide, Ac-[Pen]*-N-T-[W(7-Me)]-[Lys(Ac)]-[Pen]*-Phe[4-(2-aminoethoxy)]-[2-Nal]-[THP]-E-N-[3-Pal]-Sarc-NH2 (*[Pen]-[Pen]* formdisulfidebond)]
Subjects achieving PASI 75 (100 mg QD, Week 52): 28 (65.1%) | Change from Baseline in PASI Total Score, LSMean (100 mg QD, Week 52): −15.5 | Subjects achieving ≥75% Improvement at Week 52 (PASI 75 Response) (100 mg QD, Week 52, non-responder imputation): 28 (65.1%) | Change from Baseline in PASI Total Score, Mean [1]: −10.44 | Change from Baseline in PASI Total Score, Median [1]: −10.35 | Change from Baseline in PASI Total Score, LSMean [1]: −10.3 | Change from Baseline in PASI Total Score, Mean [2]: −13.26 | Change from Baseline in PASI Total Score, Median [2]: −14.10 | Change from Baseline in PASI Total Score, LSMean [2]: −13.2 | Change from Baseline in PASI Total Score, Mean [3]: −13.77 | Change from Baseline in PASI Total Score, Median [3]: −14.10 | Change from Baseline in PASI Total Score, LSMean [3]: −13.7 | Change from Baseline in PASI Total Score, Mean [4]: −14.14 | Change from Baseline in PASI Total Score, Median [4]: −14.75 | Change from Baseline in PASI Total Score, LSMean [4]: −13.7 | Change from Baseline in PASI Total Score, Mean [5]: −13.73 | Change from Baseline in PASI Total Score, Median [5]: −14.85 | Change from Baseline in PASI Total Score, LSMean [5]: −13.6 | Change from Baseline in PASI Total Score, Mean [6]: −14.15 | Change from Baseline in PASI Total Score, Median [6]: −15.30 | Change from Baseline in PASI Total Score, LSMean [6]: −14.0 | Subjects achieving 100% Improvement at Week 52 (PASI) [7]: 12 (34.3%) | Subjects achieving ≥75% Improvement at Week 52 (PASI 75 Response) [7]: 23 (65.7%) | Subjects achieving ≥90% Improvement at Week 52 (PASI) [7]: 20 (57.1%) | PASI ≥75% Improvement, subjects (%) (Week 1, 50 mg QD, N=43): (4.7%) | PASI ≥75% Improvement, subjects (%) (Week 1, 100 mg BID, N=42): (2.4%) | PASI ≥90% Improvement, subjects (%) (Week 1, 100 mg BID, N=42): (2.4%) | PASI ≥75% Improvement, subjects (%) (Week 1, 100 mg QD, N=43): (2.3%) | PASI ≥75% Improvement, subjects (%) (Week 2, 50 mg QD, N=43): (4.7%) | PASI ≥75% Improvement, subjects (%) (Week 2, 100 mg BID, N=42): (4.8%) | PASI ≥90% Improvement, subjects (%) (Week 2, 100 mg BID, N=42): (2.4%) | PASI ≥75% Improvement, subjects (%) (Week 2, 100 mg QD, N=43): (2.3%) | PASI ≥75% Improvement, subjects (%) (Week 4, 25 mg BID, N=41): (4.9%) | PASI ≥75% Improvement, subjects (%) (Week 4, 25 mg QD, N=43): (9.3%) | PASI ≥90% Improvement, subjects (%) (Week 4, 25 mg QD, N=43): (2.3%) | PASI ≥75% Improvement, subjects (%) (Week 4, 50 mg QD, N=43): (16.3%) | PASI ≥75% Improvement, subjects (%) (Week 4, 100 mg BID, N=42): (23.8%) | PASI ≥90% Improvement, subjects (%) (Week 4, 100 mg BID, N=42): (9.5%) | PASI ≥75% Improvement, subjects (%) (Week 4, 100 mg QD, N=43): (16.3%) | PASI ≥90% Improvement, subjects (%) (Week 4, 100 mg QD, N=43): (4.7%) | PASI 100% Improvement, subjects (%) (Week 8, 25 mg BID, N=41): (2.4%) | PASI ≥75% Improvement, subjects (%) (Week 8, 25 mg BID, N=41): (19.5%) | PASI ≥90% Improvement, subjects (%) (Week 8, 25 mg BID, N=41): (7.3%) | PASI 100% Improvement, subjects (%) (Week 8, 25 mg QD, N=43): (2.3%) | PASI ≥75% Improvement, subjects (%) (Week 8, 25 mg QD, N=43): (23.3%) | PASI ≥90% Improvement, subjects (%) (Week 8, 25 mg QD, N=43): (14.0%) | PASI 100% Improvement, subjects (%) (Week 8, 50 mg QD, N=43): (2.3%) | PASI ≥75% Improvement, subjects (%) (Week 8, 50 mg QD, N=43): (39.5%) | PASI ≥90% Improvement, subjects (%) (Week 8, 50 mg QD, N=43): (18.6%) | PASI 100% Improvement, subjects (%) (Week 8, 100 mg BID, N=42): (11.9%) | PASI ≥75% Improvement, subjects (%) (Week 8, 100 mg BID, N=42): (47.6%) | PASI ≥90% Improvement, subjects (%) (Week 8, 100 mg BID, N=42): (28.6%) | PASI 100% Improvement, subjects (%) (Week 8, 100 mg QD, N=43): (4.7%) | PASI ≥75% Improvement, subjects (%) (Week 8, 100 mg QD, N=43): (44.2%) | PASI ≥90% Improvement, subjects (%) (Week 8, 100 mg QD, N=43): (20.9%) | PASI 100% Improvement, subjects (%) (Week 12, 25 mg BID, N=41): (4.9%) | PASI ≥75% Improvement, subjects (%) (Week 12, 25 mg BID, N=41): (51.2%) | PASI ≥90% Improvement, subjects (%) (Week 12, 25 mg BID, N=41): (19.5%) | PASI 100% Improvement, subjects (%) (Week 12, 25 mg QD, N=43): (4.7%) | PASI ≥75% Improvement, subjects (%) (Week 12, 25 mg QD, N=43): (34.9%) | PASI ≥90% Improvement, subjects (%) (Week 12, 25 mg QD, N=43): (18.6%) | PASI 100% Improvement, subjects (%) (Week 12, 50 mg QD, N=43): (4.7%) | PASI ≥75% Improvement, subjects (%) (Week 12, 50 mg QD, N=43): (51.2%) | PASI ≥90% Improvement, subjects (%) (Week 12, 50 mg QD, N=43): (34.9%) | PASI 100% Improvement, subjects (%) (Week 12, 100 mg BID, N=42): (33.3%) | PASI ≥75% Improvement, subjects (%) (Week 12, 100 mg BID, N=42): (73.8%) | PASI ≥90% Improvement, subjects (%) (Week 12, 100 mg BID, N=42): (52.4%) | PASI 100% Improvement, subjects (%) (Week 12, 100 mg QD, N=43): (14.0%) | PASI ≥75% Improvement, subjects (%) (Week 12, 100 mg QD, N=43): (62.8%) | PASI ≥90% Improvement, subjects (%) (Week 12, 100 mg QD, N=43): (39.5%) | PASI 100% Improvement, subjects (%) (Week 16, 25 mg BID, N=41): (9.8%) | PASI ≥75% Improvement, subjects (%) (Week 16, 25 mg BID, N=41): (51.2%) | PASI ≥90% Improvement, subjects (%) (Week 16, 25 mg BID, N=41): (26.8%) | PASI 100% Improvement, subjects (%) (Week 16, 25 mg QD, N=43): (11.6%) | PASI ≥75% Improvement, subjects (%) (Week 16, 25 mg QD, N=43): (37.2%) | PASI ≥90% Improvement, subjects (%) (Week 16, 25 mg QD, N=43): (25.6%) | PASI 100% Improvement, subjects (%) (Week 16, 50 mg QD, N=43): (25.6%) | PASI ≥75% Improvement, subjects (%) (Week 16, 50 mg QD, N=43): (58.1%) | PASI ≥90% Improvement, subjects (%) (Week 16, 50 mg QD, N=43): (51.2%) | PASI 100% Improvement, subjects (%) (Week 16, 100 mg BID, N=42): (40.5%) | PASI ≥75% Improvement, subjects (%) (Week 16, 100 mg BID, N=42): (78.6%) | PASI ≥90% Improvement, subjects (%) (Week 16, 100 mg BID, N=42): (59.5%) | PASI 100% Improvement, subjects (%) (Week 16, 100 mg QD, N=43): (23.3%) | PASI ≥75% Improvement, subjects (%) (Week 16, 100 mg QD, N=43): (65.1%) | PASI ≥90% Improvement, subjects (%) (Week 16, 100 mg QD, N=43): (46.5%) | PASI 100% Improvement, subjects (%) (Week 20, 25 mg BID, N=41): (19.5%) | PASI ≥75% Improvement, subjects (%) (Week 20, 25 mg BID, N=41): (56.1%) | PASI ≥90% Improvement, subjects (%) (Week 20, 25 mg BID, N=41): (34.1%) | PASI 100% Improvement, subjects (%) (Week 20, 25 mg QD, N=43): (14.0%) | PASI ≥75% Improvement, subjects (%) (Week 20, 25 mg QD, N=43): (48.8%) | PASI ≥90% Improvement, subjects (%) (Week 20, 25 mg QD, N=43): (30.2%) | PASI 100% Improvement, subjects (%) (Week 20, 50 mg QD, N=43): (18.6%) | PASI ≥75% Improvement, subjects (%) (Week 20, 50 mg QD, N=43): (62.8%) | PASI ≥90% Improvement, subjects (%) (Week 20, 50 mg QD, N=43): (48.8%) | PASI 100% Improvement, subjects (%) (Week 20, 100 mg BID, N=42): (40.5%) | PASI ≥75% Improvement, subjects (%) (Week 20, 100 mg BID, N=42): (81.0%)
